Results as given in patent EP4707277A1, “NOVEL HETEROCYCLIC AMINE DERIVATIVES AND PHARMACEUTICAL COMPOSITION COMPRISING SAME” (Daewoong Pharmaceutical Co., Ltd., priority 2023, dated 2024).

Tests used:
ITK = target: T1, ITK (Homo sapiens, UniProt Q08881); assay: Inhibitory activity against ITK, ADP-Glo Kinase system (Promega); type: biochemical; conditions: 1mM ATP; read-out: ITK IC50(nM) 1mM ATP
T1 construct: purchased Signalchem I13-11G-10
T1 sequence (Q08881 1-620): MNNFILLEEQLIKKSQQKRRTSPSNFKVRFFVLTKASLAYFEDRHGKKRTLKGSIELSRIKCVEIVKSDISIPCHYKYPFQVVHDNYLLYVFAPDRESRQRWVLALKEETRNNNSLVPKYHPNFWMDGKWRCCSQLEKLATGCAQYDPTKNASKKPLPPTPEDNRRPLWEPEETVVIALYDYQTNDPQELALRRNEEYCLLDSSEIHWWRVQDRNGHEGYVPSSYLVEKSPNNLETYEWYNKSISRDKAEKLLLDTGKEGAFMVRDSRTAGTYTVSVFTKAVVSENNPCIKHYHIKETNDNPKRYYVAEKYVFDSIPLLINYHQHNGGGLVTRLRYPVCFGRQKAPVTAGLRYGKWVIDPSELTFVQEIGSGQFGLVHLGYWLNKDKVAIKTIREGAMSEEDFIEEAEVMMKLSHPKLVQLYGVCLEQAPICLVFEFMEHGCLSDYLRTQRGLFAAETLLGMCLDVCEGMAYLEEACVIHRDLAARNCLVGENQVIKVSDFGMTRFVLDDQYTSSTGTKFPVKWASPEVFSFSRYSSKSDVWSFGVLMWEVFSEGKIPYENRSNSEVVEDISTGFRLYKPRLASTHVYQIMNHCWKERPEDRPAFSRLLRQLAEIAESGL
Summary of the method: (§1)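 IC50 values were fitted from kinase reactions run for 1 h at 30°C with either 1 mM ATP or ATP at Km (10 µM for BTK, 25 µM for ITK). Reactions used 0.2 µg/µl poly(Glu4,Tyr1), recombinant human enzyme (BTK 10 ng, ITK 4 ng per reaction) in Tris pH 7.5 Mn/Mg buffer with 1% DMSO. ADP formed was read by ADP-Glo luminescence.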

BTK = target: T2, BTK (Homo sapiens, UniProt Q06187); assay: Inhibitory activity against BTK, ADP-Glo Kinase system (Promega); type: biochemical; conditions: 1mM ATP; read-out: BTK IC50(nM) 1mM ATP
T2 construct: purchased Signalchem B10-10H
T2 sequence (Q06187 whole entry): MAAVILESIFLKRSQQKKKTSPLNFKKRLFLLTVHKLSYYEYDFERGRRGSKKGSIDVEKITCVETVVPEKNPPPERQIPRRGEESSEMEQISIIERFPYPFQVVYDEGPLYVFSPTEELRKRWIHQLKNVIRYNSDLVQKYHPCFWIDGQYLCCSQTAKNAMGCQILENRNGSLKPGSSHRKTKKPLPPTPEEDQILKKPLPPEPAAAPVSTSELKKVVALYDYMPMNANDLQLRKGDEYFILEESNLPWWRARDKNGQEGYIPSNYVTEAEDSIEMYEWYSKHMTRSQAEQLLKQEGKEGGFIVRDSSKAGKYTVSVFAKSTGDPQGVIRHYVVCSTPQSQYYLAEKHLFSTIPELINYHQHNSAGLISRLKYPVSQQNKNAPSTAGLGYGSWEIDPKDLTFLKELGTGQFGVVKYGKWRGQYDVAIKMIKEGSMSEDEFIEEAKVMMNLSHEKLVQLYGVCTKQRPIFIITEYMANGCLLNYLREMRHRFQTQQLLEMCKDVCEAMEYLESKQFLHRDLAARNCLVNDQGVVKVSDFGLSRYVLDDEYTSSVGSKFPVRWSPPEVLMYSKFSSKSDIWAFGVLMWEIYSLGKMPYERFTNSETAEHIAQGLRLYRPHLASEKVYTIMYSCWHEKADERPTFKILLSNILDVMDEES
Summary of the method: as §1

Row | SMILES | IC50 (ITK) | IC50 (BTK)
1 | C=CC(=O)N1CCC[C@H](Oc2nc(Nc3ncc(C)s3)cc3c2ccn3CC)C1 [Example 153, (S)-1-(3-((1-ethyl-6-((5-methylthiazol-2-yl)amino)-1H-pyrrolo[3,2-c]pyridin-4-yl)oxy)piperidin-1-yl)prop-2-en-1-one] | 20 to 100 nM | ≤ 20 nM
2 | C=CC(=O)N1CC(C)(Oc2nc(Nc3ncc(C)s3)cc3c2ccn3CC)C1 [Example 155, 1-(3-((1-ethyl-6-((5-methylthiazol-2-yl)amino)-1H-pyrrolo[3,2-c]pyridin-4-yl)oxy)-3-methylazetidin-1-yl)prop-2-en-1-one] | 20 to 100 nM | ≤ 20 nM
3 | C=CC(=O)N1CC[C@@H](Oc2nc(Nc3ncc(C)s3)cc3c2ccn3C)C1 [Example 156, (R)-1-(3-((1-methyl-6-((5-methylthiazol-2-yl)amino)-1H-pyrrolo[3,2-c]pyridin-4-yl)oxy)pyrrolidin-1-yl)prop-2-en-1-one] | > 500 nM | > 500 nM
4 | C=CC(=O)N1CCC[C@H](Oc2nc(Nc3ncc(C)s3)cc3c2ccn3C)C1 [Example 158, (S)-1-(3-((1-methyl-6-((5-methylthiazol-2-yl)amino)-1H-pyrrolo[3,2-c]pyridin-4-yl)oxy)piperidin-1-yl)prop-2-en-1-one] | 20 to 100 nM | ≤ 20 nM
5 | C=CC(=O)N1CCC[C@H](Oc2nc(Nc3ncc(C)s3)cc3c2ccn3CCC)C1 [Example 160, (S)-1-(3-((6-((5-methylthiazol-2-yl)amino)-1-propyl-1H-pyrrolo[3,2-c]pyridin-4-yl)oxy)piperidin-1-yl)prop-2-en-1-one] | 100 to 500 nM | 100 to 500 nM

Other lines, results leading:

Row | IC50 (ITK) | IC50 (BTK) | SMILES
6 | 20 to 100 nM | ≤ 20 nM | C=CC(=O)N1CCC[C@H](Oc2nc(Nc3ncc(C)s3)cc3c2ccn3CC(C)C)C1 [Example 150, (S)-1-(3-((1-isobutyl-6-((5-methylthiazol-2-yl)amino)-1H-pyrrolo[3,2-c]pyridin-4-yl)oxy)piperidin-1-yl)prop-2-en-1-one]
7 | 20 to 100 nM | ≤ 20 nM | C=CC(=O)N1CCC[C@H](Oc2nc(Nc3ncc(C)s3)cc3c2ccn3C2CCCC2)C1 [Example 151, (S)-1-(3-((1-cyclopentyl-6-((5-methylthiazol-2-yl)amino)-1H-pyrrolo[3,2-c]pyridin-4-yl)oxy)piperidin-1-yl)prop-2-en-1-one]
8 | ≤ 20 nM | ≤ 20 nM | C=CC(=O)N1C[C@H](F)[C@H](Oc2nc(Nc3ncc(C)s3)cc3c2ccn3CC)C1 [Example 152, 1-((3R,4S)-3-((1-ethyl-6-((5-methylthiazol-2-yl)amino)-1H-pyrrolo[3,2-c]pyridin-4-yl)oxy)-4-fluoropyrrolidin-1-yl)prop-2-en-1-one]
9 | ≤ 20 nM | ≤ 20 nM | C=CC(=O)N1C[C@@H](F)[C@H](Oc2nc(Nc3ncc(C)s3)cc3c2ccn3CC)C1 [Example 154, 1-((3R,4R)-3-((1-ethyl-6-((5-methylthiazol-2-yl)amino)-1H-pyrrolo[3,2-c]pyridin-4-yl)oxy)-4-fluoropyrrolidin-1-yl)prop-2-en-1-one]
10 | ≤ 20 nM | ≤ 20 nM | C=CC(=O)N1C[C@@H](F)[C@H](Oc2nc(Nc3ncc(C)s3)cc3c2ccn3C)C1 [Example 157, 1-((3R,4R)-3-fluoro-4-((1-methyl-6-((5-methylthiazol-2-yl)amino)-1H-pyrrolo[3,2-c]pyridin-4-yl)oxy)pyrrolidin-1-yl)prop-2-en-1-one]
11 | ≤ 20 nM | ≤ 20 nM | C=CC(=O)N1C[C@H](F)[C@H](Oc2nc(Nc3ncc(C)s3)cc3c2ccn3CCC)C1 [Example 159, 1-((3S,4R)-3-fluoro-4-((6-((5-methylthiazol-2-yl)amino)-1-propyl-1H-pyrrolo[3,2-c]pyridin-4-yl)oxy)pyrrolidin-1-yl)prop-2-en-1-one]
12 | ≤ 20 nM | ≤ 20 nM | C=CC(=O)N1C[C@@H](F)[C@H](Oc2nc(Nc3ncc(C)s3)cc3c2ccn3CCC)C1 [Example 161, 1-((3R,4R)-3-fluoro-4-((6-((5-methylthiazol-2-yl)amino)-1-propyl-1H-pyrrolo[3,2-c]pyridin-4-yl)oxy)pyrrolidin-1-yl)prop-2-en-1-one]
